Data taken from PubChem BioAssay (NCI).
Values joined by “and” are separate entries in the source; they are usually repeats but may differ in a detail not shown here. Equal values may be shown once.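 Assay format: 96-well plates, 48-hour exposure. The concentration for 50% growth inhibition is given as GI50. Definition used: TGI = concentration required for complete inhibition of growth.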

Columns and labels:
Assay in all cases: DTP human tumour cell line panel, 48 h
NCI-H522 lung = test system: NCI-H522 lung
NCI-H226 lung = test system: NCI-H226 lung
SNB-19 CNS = test system: SNB-19 CNS
MDA-MB-231 breast = test system: MDA-MB-231 breast
SK-MEL-5 melanoma = test system: SK-MEL-5 melanoma
MCF7 breast = test system: MCF7 breast
HOP-92 NSCLC = test system: HOP-92 NSCLC
HOP-62 NSCLC = test system: HOP-62 NSCLC

SMILES	TGI (NCI-H522 lung)	TGI (NCI-H226 lung)	TGI (SNB-19 CNS)	TGI (MDA-MB-231 breast)	TGI (SK-MEL-5 melanoma)	TGI (MCF7 breast)	TGI (HOP-92 NSCLC)	TGI (HOP-62 NSCLC)	GI50 (NCI-H522 lung)	GI50 (NCI-H226 lung)	GI50 (SNB-19 CNS)	GI50 (MDA-MB-231 breast)	GI50 (SK-MEL-5 melanoma)	GI50 (MCF7 breast)	GI50 (HOP-92 NSCLC)	GI50 (HOP-62 NSCLC)
CCNc1ccc2c(c1)C(=O)N(OS(C)(=O)=O)C2=O	34.8 µM	97.1 µM	> 100 µM	> 100 µM	> 100 µM	> 100 µM	> 100 µM	> 100 µM								
CCOc1ccc2cc(-c3nn(CC4CCN(C)CC4)c4ncnc(N)c34)ccc2c1	33.5 µM	40.3 µM	45.9 µM	18.4 µM	29.3 µM	37.1 µM	26.1 µM		16.6 µM	14.2 µM	15.6 µM	4.52 µM	15.8 µM	13.4 µM	5.9 µM	
C/C(=N\NC(=S)N1CCCC1)c1ccccn1	6.09 µM	2.85 µM	14.7 µM	16.2 µM	0.42 µM	7.55 µM	7.98 µM	13.8 µM	0.171 µM	< 0.01 µM	0.112 µM	< 0.0348 µM	0.0348 µM	< 0.01 µM	0.0508 µM	< 0.01 µM
COc1cc(N)c(Cl)cc1C(=O)N[C@@H]1CCN(CCCOc2ccc(F)cc2)C[C@@H]1OC	> 100 µM	> 100 µM	> 100 µM	> 100 µM	> 100 µM	> 100 µM			61.8 µM	> 100 µM	> 100 µM	60.2 µM	17.8 µM	57 µM		
Cc1cc(C)nc(NC(=O)COc2ccc(Cl)cc2)c1	> 100 µM	> 100 µM	> 100 µM	> 100 µM	> 100 µM	> 100 µM	> 100 µM	> 100 µM								
CC(C)(C)OC(=O)NCCCCCCCCCCCCn1c2c(c3ccccc3c1=O)C(=O)c1ccccc1-2	> 100 µM	> 100 µM	83.5 µM	58.9 µM	> 100 µM	> 100 µM	39.9 µM	> 100 µM	45 µM	58.1 µM	32 µM	21 µM	> 100 µM	> 100 µM	16.8 µM	32.7 µM
CC(=O)c1nc(-c2ccc(C[C@@H](CNC(=O)CN(C)C)NC(=O)c3ccc(OC(C)C)c(Cl)c3)cc2)cn1C	13.8 µM	33.9 µM	17.7 µM	8.75 µM	5.51 µM	14.4 µM	13.8 µM	16.9 µM	< 0.0181 µM	12.6 µM	0.0439 µM	0.0535 µM	0.0707 µM	0.0398 µM	1.52 µM	0.0614 µM
CN(CCOc1ccc(NS(C)(=O)=O)cc1)CCc1ccc(NS(C)(=O)=O)cc1	> 100 µM	> 100 µM	> 100 µM	> 100 µM		> 100 µM	> 100 µM	> 100 µM	> 100 µM	> 100 µM	> 100 µM	> 100 µM		> 100 µM	> 100 µM	> 100 µM
COC1CCC(OC)C(c2nc3sccn3c2/C=N/N=C(N)N)C1 (stereo unspecified)	> 72.2 µM	47.5 µM	> 96.4 µM	32.8 µM	54.3 µM	45 µM	30.5 µM	42.7 µM	30.4 µM	13.6 µM	33.8 µM	1.68 µM	20.2 µM	20.1 µM	2.76 µM	17.2 µM
CCOC(=O)/C=C/c1ccc([N+](=O)[O-])o1	3.24 µM	4.25 µM	> 100 µM	11.6 µM	15.2 µM	17.2 µM	6.36 µM		1.34 µM	2.02 µM	29 µM	3.51 µM	3.81 µM	2.74 µM	2.66 µM	
OC[C@H]1N[C@H](CO)[C@@H](O)[C@H]1O	> 100 µM	> 100 µM	> 100 µM	> 100 µM	> 100 µM	> 100 µM		> 100 µM								
COc1ccc(C2=NNC(c3sc(Cl)nc3Cl)C2)cc1 (stereo unspecified)	7.69 µM	> 100 µM	68.6 µM	14 µM	14.3 µM	16.4 µM		> 100 µM	2.23 µM	2.85 µM	20.8 µM	3.12 µM	3.51 µM	3.28 µM		28.4 µM
CN(Cc1cnc2nc(N)nc(N)c2n1)c1c(Cl)cc(C(=O)NC(CCC(=O)O)C(=O)O)cc1Cl (stereo unspecified)	> 100 µM	> 100 µM	> 100 µM	> 100 µM	> 100 µM	> 100 µM	> 100 µM	> 100 µM	0.0457 µM	0.0745 µM	0.0395 µM		0.0483 µM	< 0.01 µM	1.49 µM	0.0287 µM
CC(C)C(Br)C(=O)NCC(=O)O (stereo unspecified)	> 100 µM	> 100 µM	> 100 µM	> 100 µM	> 100 µM	> 100 µM	> 100 µM	> 100 µM								
CC(=O)/C(=N\N=C(N)N)c1ccccc1	> 100 µM	> 100 µM	> 100 µM	> 100 µM	> 100 µM	> 100 µM	> 100 µM	> 100 µM								
O=C(O)CCN1C(=S)CSC1=S	> 100 µM	> 100 µM	> 100 µM	> 100 µM	> 100 µM	> 100 µM	> 100 µM	> 100 µM								
COc1ccc(CN2c3ccccc3Sc3ccccc32)cc1O	0.781 µM	35 µM	26.9 µM	18.1 µM	11.3 µM	13.4 µM	17.5 µM	17.4 µM	0.241 µM	12.2 µM	0.771 µM	0.668 µM	0.438 µM	0.355 µM	0.502 µM	0.384 µM
COc1ccc2c(c1)[n+](=O)c(/C=C/C(=O)c1cc(OC)c(OC)c(OC)c1)c(C)n2[O-]	3.45 µM	> 100 µM	> 100 µM	88.4 µM	34.3 µM	> 100 µM	19.1 µM	47 µM	1.32 µM	22.1 µM	29.7 µM	12.6 µM	12.6 µM	3.14 µM	2.56 µM	19.4 µM

SMILES	TGI (NCI-H522 lung)	TGI (NCI-H226 lung)	TGI (SNB-19 CNS)	TGI (MDA-MB-231 breast)	TGI (SK-MEL-5 melanoma)	TGI (MCF7 breast)	TGI (HOP-92 NSCLC)	TGI (HOP-62 NSCLC)	GI50 (NCI-H522 lung)	GI50 (NCI-H226 lung)	GI50 (SNB-19 CNS)	GI50 (MDA-MB-231 breast)	GI50 (SK-MEL-5 melanoma)	GI50 (MCF7 breast)	GI50 (HOP-92 NSCLC)	GI50 (HOP-62 NSCLC)
CCOC1=C/C(=N\Nc2ccc([N+](=O)[O-])cc2)CCC1	23.4 µM	> 100 µM	> 100 µM	84.6 µM	73.3 µM	> 100 µM	> 100 µM	> 100 µM								
O=C(CC1(O)CCCCC1)OC1CCCC1	> 100 µM	> 100 µM	> 100 µM	> 100 µM	> 100 µM	> 100 µM	> 100 µM	> 100 µM								
CCS(=O)(=O)c1cccc(-c2cc(C(=O)NC3CCN(C)CC3)c(C)c3[nH]c4ncc(C)cc4c23)c1	2.27 µM and 1.68 µM	3.83 µM and 5.2 µM	> 10 µM and 6.67 µM	> 5.15 µM and 4.9 µM	> 9.22 µM and 2.65 µM	4.27 µM and 5.96 µM	0.595 µM and 0.33 µM	> 6.56 µM and 2.01 µM	0.148 µM and 0.164 µM	0.372 µM and 0.714 µM	0.302 µM and 0.25 µM	0.232 µM and 0.196 µM	2.29 µM and 0.798 µM	0.105 µM and 0.0631 µM	0.12 µM and 0.0887 µM	0.645 µM and 0.266 µM
COc1ccc2c(CN3CCCC[C@H]3O)cc3cc4c(cc3c2c1)OCO4	0.559 µM	0.589 µM	7.45 µM	8.43 µM	1.39 µM	3.22 µM	2.4 µM	3.52 µM	0.214 µM	0.251 µM	0.445 µM	0.62 µM	0.345 µM	0.314 µM	0.241 µM	0.541 µM
Fc1ccc(-c2ncn(C3CCNCC3)c2-c2ccnc(Oc3ccc(Cl)cc3)n2)cc1	9.34 µM		> 18.7 µM	8.6 µM	6.41 µM	7.7 µM		7.46 µM	4.49 µM		6.57 µM	4.46 µM	3.22 µM	3.93 µM		3.7 µM
O=C(OCC1=CC(=O)c2ccccc2C1=O)c1ccccc1	28.6 µM	31.5 µM	22.4 µM	28.5 µM	2.68 µM	26.8 µM	34.9 µM	29.6 µM	15 µM	14.1 µM	10.3 µM	14.3 µM	1.31 µM	13.2 µM	20.2 µM	14.4 µM
C=C(CN1CCN(c2ccccn2)CC1)c1ccc(C(=O)Nc2ccccc2N)cc1	9.36 µM		29.7 µM	> 50 µM	1.75 µM	> 50 µM	23.1 µM	> 50 µM	1.56 µM		4.87 µM	2.17 µM	0.726 µM	3.15 µM	5.7 µM	1.32 µM
CCOC(=O)c1sc(NC(=O)COc2ccc(/C=C3\CCc4cc(OC)ccc4C3=O)cc2)nc1C	12.1 µM	27.3 µM	25.1 µM	31.8 µM	24.8 µM	23 µM	4.61 µM	30.6 µM	4.56 µM	13.3 µM	12.2 µM	13.1 µM	12.4 µM	9.43 µM	1.18 µM	15.2 µM
CN1C2C=CC(=O)C1C(C#N)C2 (stereo unspecified)		> 100 µM	> 100 µM	> 100 µM	> 100 µM	> 100 µM	57.7 µM and 93.5 µM	> 100 µM		97.7 µM		> 100 µM				
CCCCS(=O)(=O)c1cc(Nc2ccc(O)c3c2C(=O)c2ccccc2C3=O)ccc1C	> 100 µM	> 100 µM	> 100 µM	> 100 µM		> 100 µM	> 100 µM	> 100 µM	> 100 µM	> 100 µM	13.4 µM	1.68 µM		1.25 µM	> 100 µM	27.8 µM
C=C(CN1CCc2ccccc2C1)c1ccc(CCCC(=O)Nc2ccccc2N)cc1	7.15 µM	94.6 µM	> 100 µM	26.3 µM	17.3 µM	> 100 µM		75.2 µM	1.92 µM	28.8 µM	23.2 µM	10.2 µM	5.01 µM	8.45 µM		22.7 µM
OC(Cc1cccc2ccccc12)CN1CCC(c2ccccc2)CC1 (stereo unspecified)	21.9 µM		26.3 µM	28.4 µM	24.4 µM	32.7 µM	27.4 µM	30.2 µM								
COC(=O)N[C@@H](C)CNc1nccc(-c2cn(C(C)C)nc2-c2cc(Cl)cc(NS(C)(=O)=O)c2F)n1	> 100 µM	> 100 µM	> 100 µM	> 100 µM	> 100 µM	> 100 µM		> 100 µM	> 55.2 µM	> 100 µM	> 100 µM	5.72 µM	> 100 µM	98.5 µM		> 100 µM
Cc1cc(C)c(-c2c(O)c(Br)c(-c3c(C)cc(C)c(Br)c3C)c(O)c2Br)c(C)c1Br	3.6 µM	9.52 µM		4.42 µM	4.24 µM	11.8 µM	5.67 µM	10.1 µM	1.67 µM	2.54 µM		1.65 µM	1.77 µM	2.38 µM	0.66 µM	2.81 µM
COc1cc(C=NCC(=O)CSC(c2ccccc2)c2ccccc2)ccc1O		38.5 µM	28.7 µM	26.7 µM	18.2 µM	> 100 µM	21.7 µM	27.9 µM		16.8 µM	14.5 µM	12.8 µM	4.83 µM	21.2 µM	10 µM	14.6 µM
COc1c(OC2OC(C)C(O)C(O)C2O)c(OC)c2oc(-c3ccc(O)cc3)cc(=O)c2c1O (stereo unspecified)	64.5 µM	> 100 µM	> 100 µM	71.8 µM	> 100 µM	> 100 µM		> 100 µM	24.2 µM	30.6 µM	45.2 µM	16.5 µM	35.4 µM	34.4 µM		35.1 µM
O=C(O)C(Cc1ccccc1)N1C(=O)/C(=C/C(Cl)=C/c2ccc([N+](=O)[O-])cc2)SC1=S (stereo unspecified)	4.47 µM	3.27 µM		> 100 µM	3.06 µM	10.7 µM	5.71 µM	6.75 µM	1.72 µM	1.58 µM		3.35 µM	1.68 µM	2.38 µM	2.35 µM	2.31 µM
